Laboratory results published in patent US6344454B1, “Nonsteroidal gestagens” (Schering Aktiengesellschaft, priority 1997, dated 2002).

Experiments:
[1] = molecular target: T1, gestagen receptor (Oryctolagus cuniculus, UniProt P06186); test: gestagen receptor bonding test (cytosol from rabbit uterus homogenate, 3H-progesterone as reference substance); assay type: binding
T1 construct: using cytosol from rabbit uterus homogenate; from tissue; host or cells: rabbit uterus cytosol
T1 sequence (P06186 1-930): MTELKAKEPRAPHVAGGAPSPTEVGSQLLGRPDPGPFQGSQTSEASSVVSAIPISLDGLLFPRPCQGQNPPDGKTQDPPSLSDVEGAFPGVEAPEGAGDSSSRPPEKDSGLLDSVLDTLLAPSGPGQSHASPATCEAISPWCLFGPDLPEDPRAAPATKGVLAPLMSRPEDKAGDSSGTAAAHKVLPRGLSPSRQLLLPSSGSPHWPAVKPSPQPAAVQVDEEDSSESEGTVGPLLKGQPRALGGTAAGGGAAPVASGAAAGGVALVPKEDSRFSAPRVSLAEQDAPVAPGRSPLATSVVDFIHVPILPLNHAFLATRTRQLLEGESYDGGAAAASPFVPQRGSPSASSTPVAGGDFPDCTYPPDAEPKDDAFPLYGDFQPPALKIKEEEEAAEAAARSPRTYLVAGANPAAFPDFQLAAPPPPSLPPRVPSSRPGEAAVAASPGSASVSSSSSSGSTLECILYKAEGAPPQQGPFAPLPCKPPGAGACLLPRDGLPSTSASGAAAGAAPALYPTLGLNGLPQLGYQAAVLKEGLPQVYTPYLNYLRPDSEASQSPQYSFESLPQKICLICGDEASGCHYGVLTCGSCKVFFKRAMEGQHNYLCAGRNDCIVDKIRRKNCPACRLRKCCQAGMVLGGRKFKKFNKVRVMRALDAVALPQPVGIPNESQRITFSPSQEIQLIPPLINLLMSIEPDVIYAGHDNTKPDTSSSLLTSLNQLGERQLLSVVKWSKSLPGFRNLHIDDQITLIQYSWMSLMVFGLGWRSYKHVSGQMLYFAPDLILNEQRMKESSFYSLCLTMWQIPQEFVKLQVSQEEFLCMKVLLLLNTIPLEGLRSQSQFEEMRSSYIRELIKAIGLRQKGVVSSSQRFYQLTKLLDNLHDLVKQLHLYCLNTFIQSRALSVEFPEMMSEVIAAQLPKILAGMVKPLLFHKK
From the text: In the gestagen receptor bonding test on the gestagenic action using cytosol from rabbit uterus homogenate and from ^3H-progesterone as a reference substance, the new compounds show a strong to very strong affinity to the gestagen receptor (see Table 1).

Row | Structure (SMILES) | melting point | Competition Factor (Reference Substance 3H-Progesterone) [1]
1 | Cc1noc(=O)c2ccc(NC(=O)C(O)(CC(C)(C)c3ccccc3)C(F)(F)F)cc12 (stereo not shown) [Example 42, 6-(2-Hydroxy-4-methyl-4-phenyl-2-trifluoromethyl-valeroyl-amino)-4-methyl-2,3-benzoxazin-1-one] | 172 to 173 °C | –
2 | CC(CC(O)(C(=O)Nc1ccc([N+](=O)[O-])c(C(F)(F)F)c1)C(F)(F)F)c1ccccc1 (stereo not shown) [(*) (Melting point 161° C.), reference compound] | – | 2.0
3 | CC(CC(O)(C(=O)Nc1ccc([N+](=O)[O-])c(C(F)(F)F)c1)C(F)(F)F)c1ccccc1 (stereo not shown) [(*) (Melting point 141-142° C.), reference compound] | – | 17
4 | CC(C)(CC(O)(C(=O)Nc1ccc2c(c1)COC2=O)C(F)(F)F)c1cccs1 (single isomer, unassigned; (+)) [Example 103 (+)-2-thienyl, (+)-5-[2-hydroxy-4-methyl-4-(2-thienyl)-2-trifluoromethyl-valeroylamino]-phthalide] | 166 °C | –
5 | CC(C)Oc1ccc(F)cc1C(C)(C)CC(O)(C(=O)Nc1ccc2c(c1)COC2=O)C(F)(F)F (racemic) [Example 155] | 153 to 154 °C | –
6 | COc1cccc(C(C)(C)CC(O)(C(=O)Nc2ccc3c(c2)COC3=O)C(F)(F)F)c1 (stereo not shown) [Example 4, 5-[2-Hydroxy-4-(3-methoxyphenyl)-4-methyl-2-trifluoromethyl-valeroylamino]-phthalide] | 129 to 130 °C | –
7 | CC(C)(CC(O)(CNc1ccc2c(c1)COC2=O)C(F)(F)F)c1ccccc1 (racemic) [Example 65] | 154 °C | 0.17
8 | Cc1noc(=O)c2ccc(NC(=O)C(O)(CC(C)(C)c3ccccc3)C(F)(F)F)cc12 (stereo not shown) [Example 106] | 123 °C | 0.55
